Reference: patent publication US9399649B2, “Compounds for treating spinal muscular atrophy” (PTC Therapeutics Inc., priority 2012, dated 2016)

What was measured:
[1] = tested on: full length SMN2 minigene mRNA containing SMN2 exon 7; assay: SMN2 minigene mRNA splicing RT-qPCR assay in cultured cells; format: cell-based, human; conditions: for SMN2 minigene FL mRNA relative to vehicle: HEK293H cells with SMN2-A minigene, rising concentrations, 24 hr, FIG. 3; for EC (1.5-fold): Homo sapiens, HEK293-H, HEK293H cells stably transfected with SMN2-A minigene, 24 hours, 7-point concentration curve, concentration giving 1.5-fold full length SMN2 mRNA vs vehicle, read-out: EC1.5x for production of full length SMN2 mRNA
Summary of the method: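 HEK293H cells stably carrying SMN2-A minigene treated 24 h (37 °C) with compound, 7-point 3.16-fold dilution, duplicates. Multiplex RT-qPCR on lysate with exon 7/luciferase primers and exon 7–8 junction probe (minigene-specific). Full-length transcript normalised to GAPDH by modified ΔΔCt, expressed relative to vehicle-treated cells.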

[2] = tested on: gems (Smn-dependent nuclear speckles); assay: Gems count (Smn-dependent nuclear speckle count) assay; format: cell-based, human; conditions: SMA Type 1 patient cells, 48 hour, FIG. 9
From the text: The level of Smn protein directly correlates with the amount of nuclear foci, also known as gems, produced upon staining the cell with a fluorescently labeled anti-Smn antibody (Liu and Dreyfuss, EMBO J., 1996, 15:3555). Gems are multi-protein complexes whose formation is nucleated by the Smn protein and the gems count assay is used to evaluate the level of Smn protein in the cell. As described herein, the gems count assay is used to quantify the level of Smn protein in SMA patient fibroblast cells treated with a test compound.
Cells are thawed and incubated in DMEM-10% FBS for 72 hours, then trypsinized, counted and resuspended to 100,000 cells/mL in DMEM-10% FBS. 2 mL of the cell suspension is plated in a 6-well cell culture plate with a sterile cover slip and incubated for 3 to 5 hours. Test compounds are serially diluted 3.16-fold in 100% DMSO to generate a 7-point dilution curve. […]
Cell culture medium is aspirated from the wells containing cover slips and gently washed three times with cold PBS. […] The number of gems is counted per ≧150 nuclei and % activation is calculated using DMSO and 10 nM bortezomib as controls. For each test compound, the cells are examined at all wavelengths to identify test compounds with inherent fluorescence.

SMILES | SMN2 minigene FL mRNA relative to vehicle [1] | EC (1.5-fold) [1] [µM] | gems (nuclear speckle) count relative to DMSO [2]
Cc1cn2cc(-c3cc4ccc(N5CCN(C)CC5)cc4c(=O)o3)nc2c(C)n1 [Cpd 65, 3-(6,8-dimethylimidazo[1,2-a]pyrazin-2-yl)-7-(4-methylpiperazin-1-yl)-1H-isochromen-1-one] | increased SMN2 minigene FL mRNA at low concentrations | ≤ 0.1 | progressively more gems
Cc1cn2cc(-c3cc4ccc(N5CCN6CCC[C@H]6C5)cc4c(=O)o3)nc2c(C)n1 [Cpd 69, 3-(6,8-dimethylimidazo[1,2-a]pyrazin-2-yl)-7-[(8aS)-hexahydropyrrolo[1,2-a]pyrazin-2(1H)-yl]-1H-isochromen-1-one] | increased SMN2 minigene FL mRNA at low concentrations | ≤ 0.1 | progressively more gems
